The values below are quoted from earlier work in PubChem BioAssay AID1259409 (Chemical Carcinogenesis Research Information System (CCRIS), 2018).

Each structure is given as a SMILES string.

The test system of this series is rodent chemically induced tumor inhibition, incidence and multiplicity. Briefly: CCRIS tumor inhibitor studies. The conditions noted are these: Carcinogen: 7,12-DIMETHYLBENZ[A]ANTHRACENE, 57-97-6, Dose [Inhibitor]: 0, Route [Inhibitor]: ORAL, Species: FISH, FEMALE, Promoter: NONE USED.

Turning to `O=c1oc2c(O)c(O)cc3c(=O)oc4c(O)c(O)cc1c4c23`, the “tumour outcome (control, treated, inhibition, significance)” value runs as follows: (1000 PPM IN DIET FOR 17 WK BEGINNING POST CARCINOGEN TREATMENT (STUDY DURATION: 42 WK), Strain/Sex: RAINBOW TROUT/ MALE, Target Tissue: Type of Lesion: SWIM BLADDER: TUMOR, Dose [Carcinogen]: 5.5 PPM IN WATER FOR 1 HR) 15%, 6%, 60%, p<0.05; (1000 PPM IN DIET FOR 17 WK BEGINNING POST CARCINOGEN TREATMENT (STUDY DURATION: 42 WK), Strain/Sex: RAINBOW TROUT/MALE, Target Tissue: Type of Lesion: LIVER: TUMOR, Dose [Carcinogen]: 5.5 PPM IN WATER FOR 1 HR) 5%, 11%, -120%, p<0.05; (1000 PPM IN DIET FOR DURATION OF STUDY BEGINNING CONCURRENTLY WITH CARCINOGEN TREATMENT (STUDY DURATION: 42 WK), Strain/Sex: RAINBOW TROUT/ MALE, Target Tissue: Type of Lesion: STOMACH: TUMOR, Dose [Carcinogen]: 750 PPM IN DIET FOR 7 WK) 85%, 78%, 8%, p<0.05; (1000 PPM IN DIET FOR DURATION OF STUDY BEGINNING CONCURRENTLY WITH CARCINOGEN TREATMENT (STUDY DURATION: 42 WK), Strain/Sex: RAINBOW TROUT/ MALE, Target Tissue: Type of Lesion: SWIM BLADDER: TUMOR, Dose [Carcinogen]: 750 PPM IN DIET FOR 7 WK) 1%, 1%, 0%, not significant; (1000 PPM IN DIET FROM 3 WK PRIOR TO CARCINOGEN TREATMENT TO 3 D POST CARCINOGEN TREATMENT (STUDY DURATION: 42 WK), Strain/Sex: RAINBOW TROUT/MALE, Target Tissue: Type of Lesion: LIVER: TUMOR, Dose [Carcinogen]: 4.16 PPM IN WATER FOR 1 HR) 7%, 16%, -129%, p<0.001; (1000 PPM IN DIET FROM 3 WK PRIOR TO CARCINOGEN TREATMENT TO 3D POST CARCINOGEN TREATMENT (STUDY DURATION: 42 WK), Strain/Sex: RAINBOW TROUT/MALE, Target Tissue: Type of Lesion: STOMACH: TUMOR, Dose [Carcinogen]: 4.16 PPM IN WATER FOR 1 HR) 97%, 92%, 5%, not significant. Further, the “tumour outcome (control, treated, inhibition, significance)” value was 14%, 50%, -257%, p<0.001 (1000 PPM IN DIET FROM 3 WK PRIOR TO CARCINOGEN TREATMENT TO 3 D POST CARCINOGEN TREATMENT (STUDY DURATION: 42 WK), Strain/Sex: RAINBOW TROUT/MALE, Target Tissue: Type of Lesion: SWIM BLADDER: TUMOR, Dose [Carcinogen]: 4.16 PPM IN WATER FOR 1 HR); 88%, 19%, 78%, p<0.001 (2000 PPM IN DIET FOR 17 WK BEGINNING POST CARCINOGEN TREATMENT (STUDY DURATION: 42 WK), Strain/Sex: RAINBOW TROUT/ MALE, Target Tissue: Type of Lesion: STOMACH: TUMOR, Dose [Carcinogen]: 5.5 PPM IN WATER FOR 1 HR); 15%, 6%, 60%, p<0.05 (2000 PPM IN DIET FOR 17 WK BEGINNING POST CARCINOGEN TREATMENT (STUDY DURATION: 42 WK), Strain/Sex: RAINBOW TROUT/ MALE, Target Tissue: Type of Lesion: SWIM BLADDER: TUMOR, Dose [Carcinogen]: 5.5 PPM IN WATER FOR 1 HR); 5%, 10%, -100%, p<0.05 (2000 PPM IN DIET FOR 17 WK BEGINNING POST CARCINOGEN TREATMENT (STUDY DURATION: 42 WK), Strain/Sex: RAINBOW TROUT/MALE, Target Tissue: Type of Lesion: LIVER: TUMOR, Dose [Carcinogen]: 5.5 PPM IN WATER FOR 1 HR); 15%, 7%, 53%, p<0.05 (2000 PPM IN DIET FROM 1 WK PRIOR TO CARCINOGEN TREATMENT TO 3 D POST CARCINOGEN (STUDY DURATION: 42 WK), Strain/Sex: RAINBOW TROUT/ MALE, Target Tissue: Type of Lesion: SWIM-BLADDER: TUMOR, Dose [Carcinogen]: 5.5 PPM IN WATER FOR 1 HR); 5%, 3%, 40%, not significant (2000 PPM IN DIET FROM 1 WK PRIOR TO CARCINOGEN TREATMENT TO 3 D POST CARCINOGEN TREATMENT (STUDY DURATION: 42 WK), Strain/Sex: RAINBOW TROUT/ MALE, Target Tissue: Type of Lesion: LIVER: TUMOR, Dose [Carcinogen]: 5.5 PPM IN WATER FOR 1 HR).
